In ChEMBL document CHEMBL1137559, “Rational design of 5'-thiourea-substituted alpha-thymidine analogues as thymidine monophosphate kinase inhibitors capable of inhibiting mycobacterial growth” (J Med Chem, 2007):
Activity calls are given as the source filed them. The rule behind the calls is not given here.

Tests used:
[1] = species: Homo sapiens; experiment: Inhibition of human TMPK expressed in Escherichia coli at 1 mM by spectrophotometric assay
[2] = species: Homo sapiens; experiment: Inhibition of human TMPK expressed in Escherichia coli by spectrophotometric assay

Compound: Cc1cn([C@@H]2C[C@@H](CNC(=O)NC[C@H]3C[C@H](n4cc(C)c(=O)[nH]c4=O)O[C@@H]3CO)[C@H](CO)O2)c(=O)[nH]c1=O
- Activity [1]: inactive

Compound: Cc1cn([C@H]2C[C@H](O)[C@@H](COP(=O)(O)O)O2)c(=O)[nH]c1=O
- Km [2]: 5 µM
